{"source": "patent US20240350402A1", "about": "“TOPICAL DRUG TREATMENT TO PREVENT OR REDUCE CORNEAL SCARRING” (The Cleveland Clinic Foundation, priority 2021, published 2024)", "key": {"[1]": {"system": "collagen type IV", "assay": "Alkali burn model: IHC collagen type IV intensity in anterior and posterior stroma (ImageJ)", "assay_type": "in vivo, rabbit", "details": "one month", "description": "Worth, TX) and a 5 mm diameter circular Whatman No. 1 filter paper (Cat #1001-6508, Fisher Scientific) wetted with 100 μl of 1N NaOH solution. Following the alkali burn injury, the cornea was irrigated profusely with BSS. Each injured cornea also received one drop of ciprofloxacin (Alcon, Ft. Worth, TX, USA) ten minutes after surgery and four times a day for one week and at least 15 minutes apart from the study medications. […] Worth TX), at least 5 minutes apart, or 4) 50 μl of BSS. Multiplex immunohistochemistry (IHC) was performed using previously described methods^8 and primary antibodies (Table 7) confirmed by western blotting and IHC to recognize rabbit antigens or isotypic control antibodies (Thermo Fisher Scientific, Waltham, MA), and secondary fluorescent tagged antibodies (Table 7). The collagen type IV antibody (Cat. #AB769, Millipore, Temecula CA) was raised against purified human and bovine collagen type IV that had been affinity purified with human and bovine collagen type IV crosslinked to agarose and cross-absorbed by the manufacturer with human and bovine collagens type I, II, III, V and VI to eliminate cross-reactivity. This collagen type IV antibody was shown previously to bind rabbit collagen IV in IHC,^8,9 and recognizes the alpha-1/alpha-2 chains but not the alpha-3 to alpha-6 chains. The keratocan antibody is raised against peptide […]-OH (SEQ ID NO:1). This marker was used to identify keratocytes in situ. […] All corneas in each group had IHC for collagen type IV. Images from each cornea were converted to uniform 300 DPI, 875×568 pixel, files. […] The staining intensity within each box was determined with the analyze histogram function and the mean of three boxes was the intensity value in the anterior or posterior stroma for that cornea."}, "[2]": {"system": "rabbit corneas after alkali burn injury", "assay": "Alkali burn model: slit lamp opacity area and intensity (ImageJ)", "assay_type": "in vivo", "details": "alkali burn 1N NaOH; topical six times per day, one month; 0.8 mg/ml losartan, 1% prednisolone acetate", "description": "All animal treatments and care were approved by the Institutional Animal Care and Use Committee (IACUC) at the Cleveland Clinic Foundation (Cleveland, OH, USA) and the Animal Care and Use Review Office of the Department of the Army (Fort Detrick, MD). All rabbits were treated in accordance with the tenets of the ARVO Statement for the Use of Animals in Ophthalmic and Vision Research. Sixteen 10- to 15-week-old female New Zealand White rabbits weighing 2.5 to 3.0 kg each were included in this example. […]\nAt one month after sodium hydroxide exposure and treatments, with the rabbits under ketamine-xylazine general anesthesia, the eyes were dilated with two drops of 1% tropicamide (Akom Co., Lake Forest, IL) for thirty minutes. […] For each study eye, the total area of opacity was determined by outlining the opacity with the freehand selection tool using ImageJ 1.53a analysis software calibrated to mm^2. The “raw internal density” in pixels for the opacified area in each cornea was also determined using ImageJ. […]"}, "[3]": {"system": "α-SMA-positive myofibroblasts", "assay": "Alkali burn model: IHC α-SMA-positive stromal area and intensity (ImageJ)", "assay_type": "in vivo, rabbit", "details": "topical six times per day, one month", "description": "(§1) Alkali injuries were produced in one eye of rabbits with previously published methods^10 using 1N sodium hydroxide (Sigma, St. Louis, MO) in balanced salt solution (BSS, 0.64% sodium chloride, 0.075% potassium chloride, 0.048% calcium chloride dihydrate, […] magnesium chloride hexahydrate, 0.39% sodium acetate trihydrate, 0.17% sodium citrate dihydrate, pH 7.5, Alcon, H. Worth, TX) and a 5 mm diameter circular Whatman No. 1 filter paper (Cat #1001-6508, Fisher Scientific) wetted with 100 μl of 1N NaOH solution. Following the alkali burn injury, the cornea was irrigated profusely with BSS. Each injured cornea also received one drop of ciprofloxacin (Alcon, Ft. Worth, TX, USA) ten minutes after surgery and four times a day for one week and at least 15 minutes apart from the study medications.\nWorth TX), at least 5 minutes apart, or 4) 50 μl of BSS. […]\nThe area of the α-SMA-positive stroma in mm^2 and the total α-SMA opacity in pixels were quantitated using standardized images obtained with a 10× objective on a Leica DM6B upright microscope equipped with an automated stage and Leica 7000 T camera using the LAS X software (Leica Microsystems, GmbH, Wetzlar, Germany). The means of three central corneal sections were analyzed from each cornea to provide the area of α-SMA-positive stroma and the total α-SMA opacity. The area of α-SMA-positive stroma in mm^2 for each cornea was determined from full diameter and thickness central corneal section images (all converted to 300 DPI, 885 width×500 height, files with identical +50% brightness increase in Photoshop for all images) with the ImageJ 1.53a analysis software using the freehand selection tool to delineate the area(s) of α-SMA-positive staining. […] In these same sections for each cornea, the total α-SMA-positive intensity in pixels was also determined with ImageJ, similarly by using the summation if separate α-SMA-positive areas were present. […]"}, "[4]": {"system": "corneal neovascularization (CNV)", "assay": "Alkali burn model: central corneal neovascularization (corneal angiography)", "assay_type": "in vivo, rabbit", "details": "four corneas in each group, topical six times per day, one month", "description": "as §1\nWorth TX), at least 5 minutes apart, or 4) 50 μl of BSS.\nAll corneas had fluorescent angiography at the peak of dye passage in the cornea immediately after injection of 1.5 ml of 10% sodium fluorescein (McKesson, Irvine, TX) in the central ear vein with the slit lamp system and digital camera system using a “barrier filter” that only transmitted 520-530 nm, the peak of fluorescein emission, with broad illumination of the cornea, as previously described.^11"}}, "data": [{"molecule": "CC(=O)OCC(=O)[C@@]1(O)CC[C@H]2[C@@H]3CCC4=CC(=O)C=C[C@]4(C)[C@H]3[C@@H](O)C[C@@]21C", "note": "[Prednisolone acetate, prednisolone acetate]", "values": [{"measurement": "mean intensity units of collagen type IV in the anterior stroma compared to vehicle treatment", "setting": "[1]", "value": "trend towards a decrease"}, {"measurement": "total opacity intensity in pixels (ImageJ) vs BSS vehicle group", "setting": "[2]", "value": "did not reach statistical significance"}, {"measurement": "localization of α-SMA-positive myofibroblasts in the stroma", "setting": "[3]", "value": "more variable"}, {"measurement": "corneas in which central corneal neovascularization developed", "setting": "[4]", "value": "one"}]}]}
